Values quoted from earlier work as cited in patent US20050250838A1, “Formulation for sustained delivery” (priority 2004, published 2005).
Where a name gives a salt, the structure may show the parent alone.

How the values were obtained:
[1] = at 6 weeks

Which solubility (at room temperature (U.S. Pat. No. 6,660,298)) does the source give for Fc1ccc([C@@H]2CCNC[C@H]2COc2ccc3c(c2)OCO3)cc1 [amorphous paroxetine hydrochloride, paroxetine hydrochloride] here?
The solubility was “up to 75 mg/ml”.

With CNCCC(Oc1ccc(C(F)(F)F)cc1)c1ccccc1 (stereo not drawn) [fluoxetine] as the compound, how does the response [1] read?
The response was “about 50%”.

For Fc1ccc([C@@H]2CCNC[C@H]2COc2ccc3c(c2)OCO3)cc1 [paroxetine hydrochloride hemihydrate], which solubility in water (water) is on record?
Its solubility in water is 6000 to 12000 µg/mL.
